Measured values from PubChem BioAssay AID1845195 (Molecular Pharmacology Branch, DTP, NCI, 2023).
pIC50: −log10 of the molar value. Where “and” joins values, the source holds several entries; their conditions need not be identical. Equal entries are not always repeated.

Tested on: 156681-154-R-J1 tumor spheroid viability
Assay: Anticancer human tumor 156681-154-R-J1 patient-derived melanoma cell line growth inhibition
Settings: spheroids with HUVEC and MSC; for viability, T/C: stronger effect = lower value; active = viability on the fitted dose curve at most 10% of control; inactive = the rest
How it was run: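 Single agents and combinations were tested on spheroids built from tumor cells plus HUVEC and hMSC, at half-log dilutions starting at or near clinical Cmax, else 10 microM; final DMSO 0.25% (v/v).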

[1] = curve of first compound, second compound 0.003 µM
[2] = curve of first compound, second compound 0.00949 µM
[3] = curve of first compound, second compound 0.03 µM
[4] = curve of first compound, second compound 0.0949 µM
[5] = curve of first compound, second compound 0.3 µM
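Also: spheroids exposed to compounds for 7 days before readout.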
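For viability, T/C in this document: percent of vehicle control viability where 100% = DMSO-treated spheroids.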

Cn1ncnc1[C@H]1c2n[nH]c(=O)c3cc(F)cc(c23)N[C@@H]1c1ccc(F)cc1 + CC[C@@]1(O)C(=O)OCc2c1cc1n(c2=O)Cc2cc3c(CN(C)C)c(O)ccc3nc2-1
active: viability, T/C (second compound 0.003 µM, first compound 3 µM) 8.02% | viability, T/C (second compound 0.00949 µM, first compound 3 µM) 9.62% | viability, T/C (second compound 0.03 µM, first compound 3 µM) 6.77%
6.68: pIC50 [2]
> 8.02: pIC50 [3] | pIC50 [4] | pIC50 [5]
inactive: viability, T/C (second compound 0.003 µM, first compound 0.00949 µM) 87.1% | viability, T/C (second compound 0.003 µM, first compound 0.03 µM) 102% | viability, T/C (second compound 0.003 µM, first compound 0.0949 µM) 82.5% | viability, T/C (second compound 0.003 µM, first compound 0.3 µM) 77.3% | viability, T/C (second compound 0.003 µM, first compound 0.949 µM) 47.8% | viability, T/C (second compound 0.00949 µM, first compound 0.00949 µM) 58.8% | viability, T/C (second compound 0.00949 µM, first compound 0.03 µM) 65.9% | viability, T/C (second compound 0.00949 µM, first compound 0.0949 µM) 48.8% | viability, T/C (second compound 0.00949 µM, first compound 0.3 µM) 50% | viability, T/C (second compound 0.00949 µM, first compound 0.949 µM) 21.2% | viability, T/C (second compound 0.03 µM, first compound 0.00949 µM) 33.5% | viability, T/C (second compound 0.03 µM, first compound 0.03 µM) 28.7% | viability, T/C (second compound 0.03 µM, first compound 0.0949 µM) 22.1% | viability, T/C (second compound 0.03 µM, first compound 0.3 µM) 18.2% | viability, T/C (second compound 0.03 µM, first compound 0.949 µM) 15.2% | viability, T/C (second compound 0.0949 µM, first compound 0.00949 µM) 29.5% | viability, T/C (second compound 0.0949 µM, first compound 0.03 µM) 33.4% | viability, T/C (second compound 0.0949 µM, first compound 0.0949 µM) 32.7% | viability, T/C (second compound 0.0949 µM, first compound 0.3 µM) 31.2% | viability, T/C (second compound 0.0949 µM, first compound 0.949 µM) 24.9% | viability, T/C (second compound 0.0949 µM, first compound 3 µM) 10.6% | viability, T/C (second compound 0.3 µM, first compound 0.00949 µM) 41.8% | viability, T/C (second compound 0.3 µM, first compound 0.03 µM) 43.8% | viability, T/C (second compound 0.3 µM, first compound 0.0949 µM) 47.8% | viability, T/C (second compound 0.3 µM, first compound 0.3 µM) 43.3% | viability, T/C (second compound 0.3 µM, first compound 0.949 µM) 44% | viability, T/C (second compound 0.3 µM, first compound 3 µM) 24.6%
6.06: pIC50 [1]

COc1ccc([C@@H](O)c2cc(-c3ncnc4cc(N5CCOCC5)ccc34)c(F)cc2Cl)nn1
inactive: viability, T/C (compound 0.0316 µM) 95.2% and 80.1% and 80.3% | viability, T/C (compound 0.1 µM) 99.7% and 89.8% and 88% | viability, T/C (compound 0.316 µM) 88% and 84.6% and 86.1% | viability, T/C (compound 1 µM) 71.3% and 63.9% and 76.9% | viability, T/C (compound 3.16 µM) 59.8% and 60.9% and 55.3% | viability, T/C (compound 10 µM) 46.2% and 62.8% and 43.4%
5.13 and < 5.00 and 5.28: pIC50 (curve of compound)

[2H]c1nc(C)nc([2H])c1-c1cc(NC[C@@H](C)c2cccc3c(C(=O)NC)ccnc23)ncn1 + CC[C@@]1(O)C(=O)OCc2c1cc1n(c2=O)Cc2cc3c(CN(C)C)c(O)ccc3nc2-1
< 5.00: pIC50 [1] | pIC50 [2] | pIC50 [3]
inactive: viability, T/C (second compound 0.003 µM, first compound 0.0316 µM) 100% | viability, T/C (second compound 0.003 µM, first compound 0.1 µM) 132% | viability, T/C (second compound 0.003 µM, first compound 0.316 µM) 112% | viability, T/C (second compound 0.003 µM, first compound 1 µM) 92.2% | viability, T/C (second compound 0.003 µM, first compound 3.16 µM) 92.3% | viability, T/C (second compound 0.003 µM, first compound 10 µM) 78% | viability, T/C (second compound 0.00949 µM, first compound 0.0316 µM) 97.6% | viability, T/C (second compound 0.00949 µM, first compound 0.1 µM) 81.4% | viability, T/C (second compound 0.00949 µM, first compound 0.316 µM) 103% | viability, T/C (second compound 0.00949 µM, first compound 1 µM) 95.8% | viability, T/C (second compound 0.00949 µM, first compound 3.16 µM) 97.2% | viability, T/C (second compound 0.00949 µM, first compound 10 µM) 78.2% | viability, T/C (second compound 0.03 µM, first compound 0.0316 µM) 69.3% | viability, T/C (second compound 0.03 µM, first compound 0.1 µM) 72.3% | viability, T/C (second compound 0.03 µM, first compound 0.316 µM) 66.6% | viability, T/C (second compound 0.03 µM, first compound 1 µM) 65.6% | viability, T/C (second compound 0.03 µM, first compound 3.16 µM) 64.7% | viability, T/C (second compound 0.03 µM, first compound 10 µM) 76% | viability, T/C (second compound 0.0949 µM, first compound 0.0316 µM) 28.3% | viability, T/C (second compound 0.0949 µM, first compound 0.1 µM) 26.2% | viability, T/C (second compound 0.0949 µM, first compound 0.316 µM) 27.4% | viability, T/C (second compound 0.0949 µM, first compound 1 µM) 25% | viability, T/C (second compound 0.0949 µM, first compound 3.16 µM) 32.4% | viability, T/C (second compound 0.0949 µM, first compound 10 µM) 29.9% | viability, T/C (second compound 0.3 µM, first compound 0.0316 µM) 37.1% | viability, T/C (second compound 0.3 µM, first compound 0.1 µM) 32.6% | viability, T/C (second compound 0.3 µM, first compound 0.316 µM) 31.5% | viability, T/C (second compound 0.3 µM, first compound 1 µM) 40.6% | viability, T/C (second compound 0.3 µM, first compound 3.16 µM) 33.2% | viability, T/C (second compound 0.3 µM, first compound 10 µM) 36.4%
> 7.50: pIC50 [4] | pIC50 [5]

O=C(c1cc(Cc2n[nH]c(=O)c3ccccc23)ccc1F)N1CCN(C(=O)C2CC2)CC1
< 4.52: pIC50 (curve of compound)
inactive: viability, T/C (compound 0.0949 µM) 84% and 87.4% and 95% | viability, T/C (compound 0.3 µM) 82.5% and 83.7% and 107% | viability, T/C (compound 0.949 µM) 103% and 85.3% and 77.8% | viability, T/C (compound 3 µM) 64.4% and 72.5% and 82.7% | viability, T/C (compound 9.49 µM) 62.2% and 60.3% and 65.8% | viability, T/C (compound 30 µM) 50.7% and 52.9% and 63.1%

CC(C)n1c(=O)n(C)c2cnc3cc(F)c(-c4ccc(OCCCN5CCCCC5)nc4)cc3c21
< 5.00: pIC50 (curve of compound)
inactive: viability, T/C (compound 0.0316 µM) 106% and 92.3% and 88.9% | viability, T/C (compound 0.1 µM) 101% (2×) and 102% | viability, T/C (compound 0.316 µM) 97.7% and 98.2% and 112% | viability, T/C (compound 1 µM) 100% and 106% and 96.7% | viability, T/C (compound 3.16 µM) 98.3% and 109% (2×) | viability, T/C (compound 10 µM) 78.9% and 100% and 96.5%
